From publication PMC8825254, “Rational design of Striga hermonthica-specific seed germination inhibitors” (Plant Physiology, 2021)

Legend:
Striga hermonthica = experiment: Striga emergence study in infested rice pots under greenhouse conditions; format: in vivo, Striga hermonthica on rice cv IAC165; conditions: for Striga emergence, average number: twice per week for 4 weeks, 10 weeks after rice planting, mock 26 per pot; for Change in Striga emergence compared to mock: Figure 10B; for Rice plant height, change: Striga-infested pots, Figure 10C
Method: Approximately 6,000 Striga seeds (20 mg) were weighed, mixed with sand/soil mixture (1:2 ratio), and put into a 3-L perforated plastic pot containing 0.5-L clean sand/soil mixture in the bottom. The pots were kept under greenhouse-controlled conditions at 30°C and kept moist with water for Striga preconditioning for 10 d. Formulated KK023-N1 and Triton X-100 were applied (at 100 mL per pot) at 10 and 100 µM concentration. Then three rice seedlings (cv IAC165, 10 d old) were planted in each pot after 24 h of inhibitor application. All the treatments were applied continuously twice per week for 4 weeks. Water with same amount of solvent (Cyclohexanone+Atlas-G) was used as a control. Pots were irrigated with 200 mL of Hoagland’s nutrient solution with low phosphate (4 µM) when needed. The rice plants were allowed to grow under greenhouse conditions for 10 weeks and the emerged Striga plants were counted from each pot. The height of rice plants was also measured to see impact of Striga infestation on host growth.

ShHTL5 = ShHTL5 (Striga hermonthica, UniProt A0A0M5I297); experiment: YLG hydrolysis competition assay with ShHTL5; format: biochemical
Sequence of ShHTL5 (A0A0M5I297 entry or part of it): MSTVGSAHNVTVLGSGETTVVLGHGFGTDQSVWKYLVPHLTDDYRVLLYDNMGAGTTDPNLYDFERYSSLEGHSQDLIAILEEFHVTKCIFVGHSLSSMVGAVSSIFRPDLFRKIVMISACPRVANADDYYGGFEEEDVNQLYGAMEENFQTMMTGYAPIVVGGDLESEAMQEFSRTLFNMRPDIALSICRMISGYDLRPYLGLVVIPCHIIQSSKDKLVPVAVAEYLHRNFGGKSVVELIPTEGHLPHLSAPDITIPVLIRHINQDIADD

[1] = system: Rice WT (cv Nipponbare) seedlings; experiment: Rice micro tillering assay, WT, hydroponics; format: in vivo, rice (Oryza sativa); conditions: 10, 50 and 100 µM, 2 weeks, result in words
Method: Rice seeds of WT (cv Nipponbare) or SL-deficient mutant (d17), were surface sterilized with 2.5% NaClO and 0.05% of Tween-20 for 10 min, and rinsed 6 times with sterilized MilliQ water. About 30 seeds were placed on sterilized Magenta GA-7 plant culture box containing 0.5% MS medium with 0.4% agar and incubated at 30°C in dark. After 2 d, boxes were moved to a growth chamber and allowed to grow for another 5 d under fluorescent white light (130–180 μM m^−2 s^−1). Equally grown seedlings were transplanted in 50-mL black tubes filled with Hoagland nutrient solution (1 seedling/tube). Seedlings were treated with 10, 50, and 100 µM of each compound (KK023-N1, Triton X-100, and KK094). The compounds were applied twice a week for 2 weeks to test their effects on the growth of WT plants. SL-deficient seedlings (d17) were treated as WT but with the addition of 1 µM GR24. Number of tillers per plant, plant height, and dry biomass were measured at final harvest.

[2] = system: Rice seeds (cv Nipponbare); experiment: Rice germination and seedling growth in response to inhibitors; format: in vivo, rice (Oryza sativa); conditions: result in words
Method: Rice seeds (cv Nipponbare) were surface sterilized in 2.5% NaClO and 0.05% of Tween-20 for 10 min, and rinsed 6 times with sterilized MilliQ water. Seeds were imbibed in sterilized water at 30°C for 24 h in the dark. Next day, ∼3 mL of each inhibitor at different concentrations (3, 6, 12, 25, 50, and 100 μM) was added along with 0.5 Murashige and Skoog (MS) medium into 24-well plate, and one imbibed rice seed was placed in each well. The experiment was performed in six replications (one plant/well, n = 6) for each concentration. Nontreated rice seeds in 0.5-MS solution were included as a control. Seeds were allowed to germinate at 30°C in the dark for 48 h for monitoring seeds germination, and seeds were moved to a growth chamber with white fluorescent light (130–180 μM m^−2 s^−1) and12 h:12 h (Light/Dark (L/D)) period at 28°C. After 1 week, length of rice seedlings was measured and recorded, and pictures of seedlings were taken.

COc1ccc(CCCc2cccc3c2CCN3C(=O)n2ccnn2)cc1 [KK023-N1]
Striga emergence, average number (Striga hermonthica; 10 µM): 20 Striga plants per pot
Change in Striga emergence compared to mock (Striga hermonthica; 10 µM): -24%
Rice plant height, change (Striga hermonthica; 10 µM): +17%
Striga emergence, average number (Striga hermonthica; 100 µM): 16 Striga plants per pot
Change in Striga emergence compared to mock (Striga hermonthica; 100 µM): 38%
Rice plant height, change (Striga hermonthica; 100 µM): +26%
inhibition at 50 µM (ShHTL5; 1 h, 50 µM compound, read-out: Reduction of ShHTL5 hydrolysis activity): 20%
IC50 (ShHTL5; read-out: IC50, ShHTL5-mediated YLG hydrolysis): > 50 µM
Effect on YLG hydrolysis by ShHTL5 (ShHTL5; result in words): did not influence the YLG hydrolysis
Effect on dry biomass of WT rice [1]: except at 100 µM concentration that led to a reduction in biomass
Effect on plant height of WT rice [1]: did not observe any significant negative impact
Effect on tillering of WT rice [1]: did not observe any significant negative impact
Effect on rice seedling plant height ([2]; all treatments (3-100 µM), 1 week): no effect on plant height was observed
Effect on rice seed germination ([2]; up to 100 µM): did not detect any effect on seed germination
Phenotype of treated rice seedlings versus control ([2]; up to 100 µM): did not show any significant phenotypic difference
